Measured values from patent publication US9636418B2 (priority 2013, dated 2017).
“And” between values parts separate entries of the source, which are not always exact repeats. Equal values may be shown once. “Also recorded” adds a separate entry of the source. Read-outs that look alike come from different tables or passages of the source.

Tests used:
[1] = 1 mg/kg s.c.
[2] = tested on: male CD-1 mice; conditions: mouse, in vivo
[3] = tested on: male Sprague-Dawley rats; type: in vivo, rat
[4] = tested on: male CD-1 mice; conditions: mouse, in vivo; remark: listed apart in the source
[5] = in vitro; conditions: monkey, plasma
[6] = tested on: male CD-1 mice; conditions: for terminal exposure (plasma): 2 h post peptide injection
[7] = target: hNav1.7 (Homo sapiens, UniProt Q15858); experiment: cell-based; type: cell-based; conditions: values quoted in text (average); read-out: hNav1.7 IC50 in the PX format
Chain of hNav1.7 (Q15858 whole entry): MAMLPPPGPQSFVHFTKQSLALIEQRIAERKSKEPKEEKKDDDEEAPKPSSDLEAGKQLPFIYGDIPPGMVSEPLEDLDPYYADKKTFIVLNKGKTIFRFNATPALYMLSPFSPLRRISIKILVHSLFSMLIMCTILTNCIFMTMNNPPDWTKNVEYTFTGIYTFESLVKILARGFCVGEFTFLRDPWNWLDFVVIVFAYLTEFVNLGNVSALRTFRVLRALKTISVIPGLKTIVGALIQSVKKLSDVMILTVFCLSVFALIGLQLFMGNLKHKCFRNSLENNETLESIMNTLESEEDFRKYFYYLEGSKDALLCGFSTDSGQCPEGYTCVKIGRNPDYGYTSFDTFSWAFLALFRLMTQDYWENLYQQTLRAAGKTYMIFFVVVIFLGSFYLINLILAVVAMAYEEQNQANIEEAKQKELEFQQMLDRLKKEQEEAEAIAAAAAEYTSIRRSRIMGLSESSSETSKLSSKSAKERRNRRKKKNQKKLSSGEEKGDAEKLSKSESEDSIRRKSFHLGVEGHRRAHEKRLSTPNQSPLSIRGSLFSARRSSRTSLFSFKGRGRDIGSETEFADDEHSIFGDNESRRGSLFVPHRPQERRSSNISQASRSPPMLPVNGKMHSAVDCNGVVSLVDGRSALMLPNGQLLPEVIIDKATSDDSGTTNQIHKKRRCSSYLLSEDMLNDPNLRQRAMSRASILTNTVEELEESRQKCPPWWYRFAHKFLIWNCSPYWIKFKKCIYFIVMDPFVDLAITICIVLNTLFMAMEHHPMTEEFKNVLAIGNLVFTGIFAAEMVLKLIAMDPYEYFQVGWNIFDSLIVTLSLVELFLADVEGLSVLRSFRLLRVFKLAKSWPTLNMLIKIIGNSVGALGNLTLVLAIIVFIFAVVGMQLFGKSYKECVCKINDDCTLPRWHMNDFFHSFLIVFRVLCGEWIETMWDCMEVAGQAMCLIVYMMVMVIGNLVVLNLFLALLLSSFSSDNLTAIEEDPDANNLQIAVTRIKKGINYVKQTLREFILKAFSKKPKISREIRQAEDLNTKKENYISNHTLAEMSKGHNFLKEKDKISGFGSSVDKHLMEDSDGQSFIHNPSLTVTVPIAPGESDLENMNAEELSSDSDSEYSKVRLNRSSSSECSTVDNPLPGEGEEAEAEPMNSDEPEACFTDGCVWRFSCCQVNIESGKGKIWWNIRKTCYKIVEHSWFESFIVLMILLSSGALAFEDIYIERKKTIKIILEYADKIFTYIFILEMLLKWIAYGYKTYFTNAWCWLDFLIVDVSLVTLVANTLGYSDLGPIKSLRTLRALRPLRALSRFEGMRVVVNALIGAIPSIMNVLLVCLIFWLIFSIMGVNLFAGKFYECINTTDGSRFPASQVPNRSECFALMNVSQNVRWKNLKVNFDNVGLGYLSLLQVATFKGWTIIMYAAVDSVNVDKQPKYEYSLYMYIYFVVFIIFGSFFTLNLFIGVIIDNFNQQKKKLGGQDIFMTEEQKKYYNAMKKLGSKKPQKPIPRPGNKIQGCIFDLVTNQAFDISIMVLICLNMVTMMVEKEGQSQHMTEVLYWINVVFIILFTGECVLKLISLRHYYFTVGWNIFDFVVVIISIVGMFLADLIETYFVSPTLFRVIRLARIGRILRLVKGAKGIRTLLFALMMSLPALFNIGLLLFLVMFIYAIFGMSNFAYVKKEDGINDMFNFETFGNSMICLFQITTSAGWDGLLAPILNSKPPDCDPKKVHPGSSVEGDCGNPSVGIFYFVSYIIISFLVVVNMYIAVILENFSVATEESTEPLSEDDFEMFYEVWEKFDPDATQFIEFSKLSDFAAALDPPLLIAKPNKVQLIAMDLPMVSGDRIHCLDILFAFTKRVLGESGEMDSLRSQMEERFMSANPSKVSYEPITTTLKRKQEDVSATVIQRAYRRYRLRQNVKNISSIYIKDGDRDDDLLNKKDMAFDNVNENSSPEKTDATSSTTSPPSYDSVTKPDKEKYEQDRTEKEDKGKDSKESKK

[8] = tested on: TTX-sensitive Nav channels in mouse DRG neuron; type: cell-based
[9] = human plasma, 37° C., incubation 0 hr
[10] = tested on: male Sprague-Dawley rats; conditions: 5.0 mg/kg s.c., 2 h post peptide injection
[11] = cyno plasma, 37° C., incubation 0 hr
[12] = in vitro; conditions: human, plasma
[13] = in vivo; conditions: CD-1, mouse, sc, 1 mg/kg
[14] = 0.1, 0.3 or 1.0 mg/kg s.c., 1-hour pre-treatment

## CC[C@H](C)[C@H](NC(=O)[C@H](CCCCN)NC(=O)[C@H](CCCNC(=N)N)NC(=O)[C@@H]1CSSC[C@@H]2NC(=O)[C@H](C)NC(=O)[C@H](CCCNC(=N)N)NC(=O)[C@H](CCCCN)NC(=O)[C@H](CO)NC(=O)[C@H](CC(=O)O)NC(=O)[C@@H]3CSSC[C@H](NC(=O)[C@H](CCC(=O)O)NC(=O)[C@H](CC(C)C)NC(=O)CNC(=O)[C@H](CCC(=O)O)NC(=O)[C@H](CSSC[C@H](NC(=O)[C@@H](N)Cc4ccc(O)cc4)C(=O)N[C@@H](CCC(N)=O)C(=O)N[C@@H](CCCCN)C(=O)N[C@@H](Cc4c[nH]c5ccccc45)C(=O)N[C@@H](CCSC)C(=O)N[C@@H](Cc4c[nH]c5ccccc45)C(=O)N[C@@H]([C@@H](C)O)C(=O)N3)NC2=O)C(=O)N[C@@H](CCCCN)C(=O)N[C@@H](CC(C)C)C(=O)N[C@@H](Cc2c[nH]c3ccccc23)C(=O)N1)C(=O)N[C@@H](Cc1c[nH]c2ccccc12)C(N)=O [SEQ ID NO: 112, [Glu20;Trp29]JzTx-V(1-29)]
[1]; CD-1 mice
  plasma concentration over the in vitro hNav1.7 IC50 by PX: 26 fold
[1]; mice
  time with measurable plasma concentrations: 4 h
  tolerability: tolerated
[2]
  thermal latency / thermal hyperalgesia: no effect
[3]; peptide 5.0 mg/kg s.c. 1-h pre-treatment, vs vehicle (PBS)
  formalin response, first or acute phase (0-5 min): no effect
[3]; rat, in vivo
  formalin response, second phase (5-40 min): did not decrease and may have actually increased; also recorded: may have actually increased the pain response
[4]
  time spent lifting and/or licking the affected paw, first phase (0-5 min): no effect and Neither the peptide nor the morphine positive control significantly reduced and 1 mg/kg dose of peptide may have slightly increased the pain response
  time spent lifting and/or licking the affected paw, second phase (5-40 min): no effect; also recorded: but not the peptide significantly reduced
[5]
  remaining at 2 h: 93%
  remaining at 4 h: 91%
  remaining at 6 h: 90%
  remaining at 8 h: 91%
  remaining at 24 h: 89%
[6]; 0.1 mg/kg s.c.
  terminal exposure (plasma): 0.0248 ± 0.00668 µM
[6]; 0.3 mg/kg s.c.
  terminal exposure (plasma): 0.121 ± 0.0296 µM
[6]; 1.0 mg/kg s.c.
  terminal exposure (plasma): 0.419 ± 0.226 µM
[6]; 5.0 mg/kg s.c.
  terminal exposure (plasma): 4.73 ± 0.584 µM
[6]; [14]
  total fine movement: no effect
  total time rearing: no effect
[7]
  IC50: 1.5 nM
[8]
  block of TTX-sensitive Nav current: only blocked around half of TTX-sensitive Nav current; also recorded: only partially blocked TTX-sensitive Nav current; also recorded: only partial inhibition
[8]; TTX-sensitive current, mouse DRG neurons
  loss in potency relative to the human clone of Nav1.7: ~1000 fold
[9]
  % Peptide Remaining: 100%
[10]
  terminal exposure (plasma): 0.994 ± 0.184 µM
[11]
  % Peptide Remaining: 100%
[12]
  remaining at 2 h: 95%
  remaining at 4 h: 84%
  remaining at 6 h: 75%
  remaining at 8 h: 71%
  remaining at 24 h: 48%
[13]
  half-life: ~2.08 h
